Like-named read-outs stand apart in the source and are kept apart here.
Legend:
OX1 [1] = biological target: T1, OX1 (Homo sapiens, UniProt O43613); assay: Orexin-receptor binding ability, [125I]-OX-A, CHO cell membranes expressing OX1; parameters: expressed in transfected cells; host or cells: CHO cells (membrane preparation); details: membranes of recombinant CHO cells, 0.2 nM [125I]-OX-A tracer; read-out: OX1 (IC50)
T1 sequence (O43613 1-425): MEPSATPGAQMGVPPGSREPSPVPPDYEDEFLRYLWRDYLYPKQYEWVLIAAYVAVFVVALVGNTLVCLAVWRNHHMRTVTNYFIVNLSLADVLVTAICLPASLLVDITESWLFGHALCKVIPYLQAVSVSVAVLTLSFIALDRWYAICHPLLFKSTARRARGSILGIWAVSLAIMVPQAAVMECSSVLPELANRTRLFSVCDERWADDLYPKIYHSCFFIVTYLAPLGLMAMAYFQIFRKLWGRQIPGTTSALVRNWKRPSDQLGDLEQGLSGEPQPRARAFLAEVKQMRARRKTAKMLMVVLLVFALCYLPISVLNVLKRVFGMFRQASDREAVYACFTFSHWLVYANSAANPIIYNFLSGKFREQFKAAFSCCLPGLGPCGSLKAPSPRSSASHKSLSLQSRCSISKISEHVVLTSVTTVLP
Experimental: (§1) The assay was carried out using a 96-well Wheat Germ Agglutinin Flash Plate (PerkinElmer). The volume in a single assay well was 100 ul, and the composition of the reaction solution was as follows:
(§2) 25 mM HEPES (pH 7.5), 1 mM CaCl2, 4.5 mM MgCl2, 0.5% BSA (bovine serum albumin), 0.1% sodium azide, 0.05% Tween-20, and 0.2% DMSO.
Cell membranes were prepared from recombinant CHO cells that expressed OX2 or OX1. The cell membranes were used in an amount of 5 μg protein/assay. […] Finally, the radioactivity of each well was measured using a scintillation counter (TopCount, PerkinElmer). The obtained results are shown in terms of IC50 values (nM) in the following table.

OX2 [2] = biological target: T2, OX2 (Homo sapiens, UniProt O43614); assay: Orexin-receptor binding ability, [125I]-OX-A, CHO cell membranes expressing OX2; parameters: expressed in transfected cells; host or cells: CHO cells (membrane preparation)
T2 sequence (O43614 1-444): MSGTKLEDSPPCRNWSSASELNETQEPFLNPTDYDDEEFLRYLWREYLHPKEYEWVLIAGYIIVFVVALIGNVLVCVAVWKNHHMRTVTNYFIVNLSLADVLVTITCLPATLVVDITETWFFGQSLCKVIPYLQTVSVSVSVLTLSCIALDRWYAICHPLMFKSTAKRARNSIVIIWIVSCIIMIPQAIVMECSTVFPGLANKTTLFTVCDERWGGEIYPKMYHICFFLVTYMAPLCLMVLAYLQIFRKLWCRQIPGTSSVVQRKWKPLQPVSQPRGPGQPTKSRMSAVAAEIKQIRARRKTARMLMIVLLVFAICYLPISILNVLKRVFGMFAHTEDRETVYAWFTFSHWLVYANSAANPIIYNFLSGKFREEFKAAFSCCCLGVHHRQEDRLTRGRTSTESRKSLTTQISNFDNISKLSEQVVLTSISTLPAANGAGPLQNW
Experimental: as §1, §2
Cell membranes were prepared from recombinant CHO cells that expressed OX2 or OX1. The cell membranes were used in an amount of 5 μg protein/assay. Test compound in various concentrations, and 0.2 nM [^125I]-OX-A as tracer were added to the cell membranes, and then allowed to react at room temperature for 30 minutes. After completion of the reaction, the reaction solution as a whole was discarded, and the wells were then washed once with 200 ul of wash buffer (25 mM HEPES (pH 7.5), 1 mM CaCl2, 5 mM MgCl2, 0.5% BSA, 0.1% sodium azide, 0.05% Tween-20, and 525 mM sodium chloride). Finally, the radioactivity of each well was measured using a scintillation counter (TopCount, PerkinElmer). The obtained results are shown in terms of IC50 values (nM) in the following table.

OX1 [3] = biological target: T1, OX1; assay: Antagonism PLAP reporter assay, HEK-293 cells expressing human OX1; assay type: cell-based; parameters: expressed in transfected cells; host or cells: HEK-293 cell line, expression vector pBabeCLIH; details: HEK-293, 1 nM human OX-A; IC50 converted to Ki by Cheng-Prusoff equation
Experimental: (§3) The antagonistic function of the compound of the present invention to prevent the activation of OX2 and OX1 by orexin-A (OX-A), which is a natural peptide agonist, was measured using a cell-based reporter assay. A HEK-293 cell line expressing genetically recombinant human OX2 (accession No. NM_001526.3) or a HEK-293 cell line expressing genetically recombinant human OX1 (accession No. NM_001525.2), which had pBabeCLIH as expression vector, was used. The cells were plated at a density of 10,000 cells/well onto a non-coated 96-well plate in Dulbecco's modified Eagle medium (Sigma Cat No. D6046: 10% v/v heat-inactivated fetal bovine serum was contained). The cells were cultured at 37° C. overnight, so that they could adhere to the plate. On the following day, cells were incubated with a compound of the present invention dissolved in Dulbecco's modified Eagle medium (Sigma Cat No. A8806: 0.1% w/v bovine serum albumin was contained), and added to the cell plate to reach a final concentration of 0.1% dimethyl sulfoxide.
(§4) The thus obtained mixture was incubated at room temperature for 1 hour. Thereafter, human OX-A and forskolin were dissolved in the same medium as described above, which contained fetal bovine serum albumin, and the medium was then added to the cells, resulting in a final concentration of 300 nM forskolin. Subsequently, the cells were cultured at 37° C. for approximately 18 to 24 hours. During the culture, as a result of activation of the orexin receptor and subsequent dose-dependent increase in intracellular calcium concentration, a reporter enzyme, placental alkaline phosphatase (PLAP), was expressed under the control of a CRE x4+VIP promoter in a pBabeCLcre4vPdNN vector and secreted into the culture medium supernatant. On the following day, reporter enzyme activity was detected by mixing 5 ul of the culture medium supernatant with 20 ul of detection buffer (containing 1.34 g/L sodium bicarbonate, 1.27 g/L sodium carbonate and 0.2 g/L magnesium sulfate heptahydrate in water) and 25 ul of Lumi-Phos530 reagent (Wako Pure Chemical Industries Ltd.), followed by incubating the obtained mixture light-protected at room temperature for 2 hours, before performing luminescence measurement (ARVO Reader, PerkinElmer). The Kd value of human OX-A with respect to each receptor was measured by titration from 0 to 300 nM. Then, the IC50 value of the compound of the present invention with respect to the activity of 1 nM human OX-A was converted into a Ki value (nM) using the Cheng-Prusoff equation.

OX2 [4] = biological target: T2, OX2; assay: Antagonism PLAP reporter assay, HEK-293 cells expressing human OX2; assay type: cell-based; parameters: expressed in transfected cells; host or cells: HEK-293 cell line, expression vector pBabeCLIH; details: HEK-293, 1 nM human OX-A; IC50 converted to Ki by Cheng-Prusoff equation
Experimental: as §3, §4

[5] = membranes of recombinant CHO cells, 0.2 nM [125I]-OX-A tracer, read-out: OX2 (IC50)

Structure (SMILES)	IC50 (OX1 [1]) [nM]	IC50 (OX2 [2]) [nM]	Ki (OX1 [3]) [nM]	Ki (OX2 [4]) [nM]	IC50 (OX2 [2]; [5]) [nM]
CCn1cc(OC[C@@]2(c3ccccc3)C[C@H]2C(=O)Nc2ccc(F)cn2)ccc1=O (racemic) [Example 56]	160	14	158	9.1	–
COc1ccc(OCC2(c3ccccc3)CC2C(=O)Nc2ccccc2)cc1OC (stereo not drawn) [Example 1]	7	–	395	54	7
Cc1cnc(OC[C@@]2(c3ccccc3)C[C@H]2C(=O)Nc2ccc(F)cn2)c(C)n1 [Example 65]	57	–	–	–	26
Cc1cnc(OC[C@@]2(c3ccccc3)C[C@H]2C(=O)Nc2ccc(C#N)cn2)c(C)n1 [Example 66]	74	–	–	–	21
Cc1cnc(OC[C@@]2(c3ccccc3)C[C@H]2C(=O)Nc2ccc(Cl)cn2)c(C)n1 [Example 67]	33	–	–	–	7
CCn1cc(OC[C@@]2(c3ccccc3)C[C@H]2C(=O)Nc2ccccn2)c(C)n1 [Example 69]	2130	–	–	–	69
CCn1cc(OC[C@@]2(c3ccccc3)C[C@H]2C(=O)Nc2ccc(F)cc2)c(C)n1 [Example 71]	1310	–	–	–	45
Cc1nn(C)cc1OCC1(c2ccccc2)CC1C(=O)Nc1ccc(Cl)cn1 (stereo not drawn) [Example 83]	682	–	–	–	15
CCn1cc(OC[C@@]2(c3cccc(F)c3)C[C@H]2C(=O)Nc2ccccn2)c(C)n1 [Example 85]	59	–	–	–	8
CCn1cc(OC[C@@]2(c3cccc(F)c3)C[C@H]2C(=O)Nc2ccc(F)cn2)c(C)n1 [Example 86]	15	–	–	–	5
CCn1cc(OC[C@@]2(c3cccc(F)c3)C[C@H]2C(=O)Nc2ccc(F)cn2)c(C)n1 [Example 87]	136	–	–	–	21
CCn1cc(OC[C@@]2(c3cccc(F)c3)C[C@H]2C(=O)Nc2ccc(F)cc2)c(C)n1 [Example 88]	84	–	–	–	12
CCn1cc(OC[C@@]2(c3cccc(F)c3)C[C@H]2C(=O)Nc2cc(OC)c(F)cn2)c(C)n1 [Example 89]	> 200	–	–	–	93
CCn1cc(OC[C@@]2(c3cccc(F)c3)C[C@H]2C(=O)Nc2ccc(C#N)cn2)c(C)n1 [Example 90]	13	–	–	–	8
CCn1cc(OC[C@@]2(c3cccc(F)c3)C[C@H]2C(=O)Nc2ccnc(F)c2)c(C)n1 [Example 91]	> 200	–	–	–	93
COc1cncc(NC(=O)[C@@H]2C[C@@]2(COc2cc(=O)n(C)nc2C)c2ccccc2)c1 [Example 92, (1R,2S)-2-[(1,3-dimethyl-6-oxo-1,6-dihydropyridazin-4-yl)oxymethyl]-N-(5-methoxypyridin-3-yl)-2-phenylcyclopropanecarboxamide]	1360	–	–	–	5
Cc1nn(C)c(=O)cc1OC[C@@]1(c2ccccc2)C[C@H]1C(=O)Nc1ccc(F)cc1 [Example 93, (1R,2S)-2-[(1,3-dimethyl-6-oxo-1,6-dihydropyridazin-4-yl)oxymethyl]-N-(4-fluorophenyl)-2-phenylcyclopropanecarboxamide]	410	–	–	–	27
Cc1cc(NC(=O)[C@@H]2C[C@@]2(COc2cc(=O)n(C)nc2C)c2ccccc2)ncc1F [Example 94]	771	–	–	–	39
Cc1nn(C)c(=O)cc1OC[C@@]1(c2ccccc2)C[C@H]1C(=O)Nc1ccc(Cl)cn1 [Example 95]	1600	–	–	–	59
CCn1nc(C)c(OC[C@@]2(c3ccccc3)C[C@H]2C(=O)Nc2ccc(F)cc2)cc1=O [Example 98]	132	–	–	–	55
CCn1cc(CCC2(c3ccccc3)CC2C(=O)Nc2ccc(Cl)cn2)cn1 (stereo not drawn) [Example 102]	364	–	–	–	22
Cc1cc(NC(=O)[C@@H]2C[C@@]2(CCn2nc(C(F)F)nc2C)c2ccccc2)ncc1F [Example 108, (1R,2S)-2-[2-(3-difluoromethyl-5-methyl-1H-1,2,4-triazol-1-yl)ethyl]-N-(5-fluoro-4-methylpyridin-2-yl)-2-phenylcyclopropanecarboxamide]	101	–	–	–	6
Cc1nc(C(F)F)nn1CC[C@@]1(c2ccccc2)C[C@H]1C(=O)Nc1ccc(F)cn1 [Example 109]	1330	–	–	–	71
Cc1nc(C(F)F)nn1CC[C@@]1(c2ccccc2)C[C@H]1C(=O)Nc1ccc(Cl)cn1 [Example 110]	196	–	–	–	36
Cc1nc(C(F)F)nn1CC[C@@]1(c2ccccc2)C[C@H]1C(=O)Nc1ccc(F)cc1 [Example 111]	655	–	–	–	41
Cc1nc(C(F)F)nn1CC[C@@]1(c2ccccc2)C[C@H]1C(=O)Nc1ccc(C#N)cn1 [Example 112]	–	–	–	–	33
COc1nc(C)n(CCC2(c3ccccc3)CC2C(=O)Nc2ccc(Cl)cn2)n1 (stereo not drawn) [Example 116]	> 2000	–	–	–	89
COc1cn(CCC2(c3ccccc3)CC2C(=O)Nc2ccc(Cl)cn2)ccc1=O (stereo not drawn) [Example 117]	456	–	–	–	46
Cc1csc(NC(=O)[C@@H]2C[C@@]2(CCn2nc(C(F)(F)F)nc2C)c2ccccc2)n1 [Example 124]	2250	–	–	–	55
Cc1nc(C2CC2)nn1CC[C@@]1(c2ccccc2)C[C@H]1C(=O)Nc1ccc(C#N)cn1 [Example 127]	266	–	–	–	23

Source: patent publication US20120165339A1, “CYCLOPROPANE DERIVATIVES” (EISAI R&D MANAGEMENT CO., LTD., priority 2010, published 2012)
